Test results as given in PubChem BioAssay AID2060624 (Molecular Pharmacology Branch, DTP, NCI, 2025).
pIC50: −log10 of the molar value.

Tested on: 217524-143-R1-J4-PDC spheroids with HUVEC/MSC, viability
Test: Anticancer human tumor 217524-143-R1-J4-PDC patient-derived pancreatic carcinoma cell line growth inhibition [CLK]
Conditions: for pIC50: curve of first compound; for viability, T/C: stronger effect = lower value
Method in brief: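 Multi-cell-type spheroids combined patient-derived tumor cells with HUVEC endothelial cells and human mesenchymal stem cells. Paired agents were dosed in half-log steps down from about clinical Cmax, or from 10 microM where Cmax was unknown.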

[1] = second compound 0.0316 µM, first compound 0.0316 µM
[2] = second compound 0.0316 µM, first compound 0.1 µM
[3] = second compound 0.0316 µM, first compound 0.316 µM
[4] = second compound 0.0316 µM, first compound 1 µM
[5] = second compound 0.0316 µM, first compound 3.16 µM
[6] = second compound 0.0316 µM, first compound 10 µM
[7] = second compound 0.1 µM, first compound 0.0316 µM
[8] = second compound 0.1 µM, first compound 0.1 µM
[9] = second compound 0.1 µM, first compound 0.316 µM
[10] = second compound 0.1 µM, first compound 1 µM
[11] = second compound 0.1 µM, first compound 3.16 µM
[12] = second compound 0.1 µM, first compound 10 µM
[13] = second compound 0.316 µM, first compound 0.0316 µM
[14] = second compound 0.316 µM, first compound 0.1 µM
[15] = second compound 0.316 µM, first compound 0.316 µM
[16] = second compound 0.316 µM, first compound 1 µM
[17] = second compound 0.316 µM, first compound 3.16 µM
[18] = second compound 0.316 µM, first compound 10 µM
[19] = second compound 1 µM, first compound 0.0316 µM
[20] = second compound 1 µM, first compound 0.1 µM
[21] = second compound 1 µM, first compound 0.316 µM
[22] = second compound 1 µM, first compound 1 µM
[23] = second compound 1 µM, first compound 3.16 µM
[24] = second compound 1 µM, first compound 10 µM
[25] = second compound 3.16 µM, first compound 0.0316 µM
[26] = second compound 3.16 µM, first compound 0.1 µM
[27] = second compound 3.16 µM, first compound 0.316 µM
[28] = second compound 3.16 µM, first compound 1 µM
[29] = second compound 3.16 µM, first compound 3.16 µM
[30] = second compound 3.16 µM, first compound 10 µM
[31] = second compound 10 µM, first compound 0.0316 µM
[32] = second compound 10 µM, first compound 0.1 µM
[33] = second compound 10 µM, first compound 0.316 µM
[34] = second compound 10 µM, first compound 1 µM
[35] = second compound 10 µM, first compound 3.16 µM
[36] = second compound 10 µM, first compound 10 µM
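Also: spheroids exposed to agents for seven days before reading.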
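For viability, T/C in this document: 100% = DMSO vehicle control viability.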

SMILES: C#Cc1c(F)ccc2cc(O)cc(-c3ncc4c(N5CC6CCC(C5)N6)nc(OCC56CCCN5CC(F)C6)nc4c3F)c12 (stereo not drawn) + CN1CCN(c2cc(C(=O)Nc3cc4cc(-c5cnn(C)c5)ccc4cn3)ccn2)CC1
- pIC50 (second compound 0.0316 µM): < 5.00
- pIC50 (second compound 0.1 µM): 5.49
- pIC50 (second compound 0.316 µM): > 7.50
- pIC50 (second compound 1 µM): > 7.50
- pIC50 (second compound 3.16 µM): > 7.50
- pIC50 (second compound 10 µM): > 7.50
- viability, T/C [1]: 76.1%
- viability, T/C [2]: 74.4%
- viability, T/C [3]: 65.5%
- viability, T/C [4]: 85.1%
- viability, T/C [5]: 81.1%
- viability, T/C [6]: 55%
- viability, T/C [7]: 53.6%
- viability, T/C [8]: 46.2%
- viability, T/C [9]: 53.2%
- viability, T/C [10]: 55.5%
- viability, T/C [11]: 49.3%
- viability, T/C [12]: 37%
- viability, T/C [13]: 28.3%
- viability, T/C [14]: 23.9%
- viability, T/C [15]: 25.2%
- viability, T/C [16]: 21.6%
- viability, T/C [17]: 24.8%
- viability, T/C [18]: 18%
- viability, T/C [19]: 2.18%
- viability, T/C [20]: 2.28%
- viability, T/C [21]: 3.15%
- viability, T/C [22]: 2.36%
- viability, T/C [23]: 1.66%
- viability, T/C [24]: 2.26%
- viability, T/C [25]: 0.79%
- viability, T/C [26]: 0.88%
- viability, T/C [27]: 0.86%
- viability, T/C [28]: 0.96%
- viability, T/C [29]: 0.86%
- viability, T/C [30]: 0.79%
- viability, T/C [31]: 0.25%
- viability, T/C [32]: 0.25%
- viability, T/C [33]: 0.2%
- viability, T/C [34]: 0.23%
- viability, T/C [35]: 0.23%
- viability, T/C [36]: 0.43%

SMILES: CC(CO)NC(=O)c1cc(-c2ccc(Cl)cc2)nn(-c2cnn(C)c2)c1=O (stereo not drawn) + CN1CCN(c2cc(C(=O)Nc3cc4cc(-c5cnn(C)c5)ccc4cn3)ccn2)CC1
- pIC50 (second compound 0.0316 µM): < 5.00
- pIC50 (second compound 0.1 µM): 6.64
- pIC50 (second compound 0.316 µM): > 7.50
- pIC50 (second compound 1 µM): > 7.50
- pIC50 (second compound 3.16 µM): > 7.50
- pIC50 (second compound 10 µM): > 7.50
- viability, T/C [1]: 81%
- viability, T/C [2]: 83.5%
- viability, T/C [3]: 68.8%
- viability, T/C [4]: 71.7%
- viability, T/C [5]: 92%
- viability, T/C [6]: 54.1%
- viability, T/C [7]: 73.4%
- viability, T/C [8]: 53.2%
- viability, T/C [9]: 47.8%
- viability, T/C [10]: 51%
- viability, T/C [11]: 53.9%
- viability, T/C [12]: 39.6%
- viability, T/C [13]: 14.4%
- viability, T/C [14]: 19.4%
- viability, T/C [15]: 18.1%
- viability, T/C [16]: 18.6%
- viability, T/C [17]: 19.8%
- viability, T/C [18]: 16.7%
- viability, T/C [19]: 1.96%
- viability, T/C [20]: 2.25%
- viability, T/C [21]: 2.62%
- viability, T/C [22]: 1.95%
- viability, T/C [23]: 1.85%
- viability, T/C [24]: 1.4%
- viability, T/C [25]: 1.05%
- viability, T/C [26]: 1.27%
- viability, T/C [27]: 0.89%
- viability, T/C [28]: 0.99%
- viability, T/C [29]: 0.97%
- viability, T/C [30]: 0.84%
- viability, T/C [31]: 0.26%
- viability, T/C [32]: 0.3%
- viability, T/C [33]: 0.26%
- viability, T/C [34]: 0.29%
- viability, T/C [35]: 0.33%
- viability, T/C [36]: 0.27%

SMILES: CC(Nc1ccc2c(c1)OCCn1cc(N3C(=O)OCC3C(F)F)nc1-2)C(N)=O (stereo not drawn) + CN1CCN(c2cc(C(=O)Nc3cc4cc(-c5cnn(C)c5)ccc4cn3)ccn2)CC1
- pIC50 (second compound 0.0316 µM): 7.21
- pIC50 (second compound 0.1 µM): > 7.50
- pIC50 (second compound 0.316 µM): > 7.50
- pIC50 (second compound 1 µM): > 7.50
- pIC50 (second compound 3.16 µM): > 7.50
- pIC50 (second compound 10 µM): > 7.50
- viability, T/C [1]: 75.1%
- viability, T/C [2]: 30.5%
- viability, T/C [3]: 16.9%
- viability, T/C [4]: 6.57%
- viability, T/C [5]: 5.62%
- viability, T/C [6]: 3.9%
- viability, T/C [7]: 40.8%
- viability, T/C [8]: 24.6%
- viability, T/C [9]: 10.2%
- viability, T/C [10]: 5.26%
- viability, T/C [11]: 4.73%
- viability, T/C [12]: 3.98%
- viability, T/C [13]: 19.2%
- viability, T/C [14]: 9.36%
- viability, T/C [15]: 6.98%
- viability, T/C [16]: 4.68%
- viability, T/C [17]: 3.77%
- viability, T/C [18]: 3.27%
- viability, T/C [19]: 2.47%
- viability, T/C [20]: 1.63%
- viability, T/C [21]: 1.31%
- viability, T/C [22]: 1.2%
- viability, T/C [23]: 1.03%
- viability, T/C [24]: 0.93%
- viability, T/C [25]: 0.62%
- viability, T/C [26]: 0.64%
- viability, T/C [27]: 0.73%
- viability, T/C [28]: 0.58%
- viability, T/C [29]: 0.75%
- viability, T/C [30]: 0.64%
- viability, T/C [31]: 0.11%
- viability, T/C [32]: 0.18%
- viability, T/C [33]: 0.18%
- viability, T/C [34]: 0.13%
- viability, T/C [35]: 0.27%
- viability, T/C [36]: 0.2%

SMILES: COc1c(OCCCN2CCOCC2)ccc2c3n(c(=NC(=O)c4cnc(N)nc4)nc12)CCN3 + CN1CCN(c2cc(C(=O)Nc3cc4cc(-c5cnn(C)c5)ccc4cn3)ccn2)CC1
- pIC50 (second compound 0.0316 µM): 8.20
- pIC50 (second compound 0.1 µM): > 8.50
- pIC50 (second compound 0.316 µM): > 8.50
- pIC50 (second compound 1 µM): > 8.50
- pIC50 (second compound 3.16 µM): > 8.50
- pIC50 (second compound 10 µM): > 8.50
- viability, T/C (second compound 0.0316 µM, first compound 0.00316 µM): 72.3%
- viability, T/C (second compound 0.0316 µM, first compound 0.01 µM): 35.1%
- viability, T/C [1]: 8.37%
- viability, T/C [2]: 4.22%
- viability, T/C [3]: 3.38%
- viability, T/C [4]: 2.18%
- viability, T/C (second compound 0.1 µM, first compound 0.00316 µM): 40.3%
- viability, T/C (second compound 0.1 µM, first compound 0.01 µM): 24.1%
- viability, T/C [7]: 7.97%
- viability, T/C [8]: 4.61%
- viability, T/C [9]: 2.58%
- viability, T/C [10]: 2.72%
- viability, T/C (second compound 0.316 µM, first compound 0.00316 µM): 18.8%
- viability, T/C (second compound 0.316 µM, first compound 0.01 µM): 12.1%
- viability, T/C [13]: 5.45%
- viability, T/C [14]: 3.87%
- viability, T/C [15]: 2.75%
- viability, T/C [16]: 2.26%
- viability, T/C (second compound 1 µM, first compound 0.00316 µM): 2.94%
- viability, T/C (second compound 1 µM, first compound 0.01 µM): 1.77%
- viability, T/C [19]: 1.27%
- viability, T/C [20]: 1.02%
- viability, T/C [21]: 0.59%
- viability, T/C [22]: 0.49%
- viability, T/C (second compound 3.16 µM, first compound 0.00316 µM): 0.65%
- viability, T/C (second compound 3.16 µM, first compound 0.01 µM): 0.68%
- viability, T/C [25]: 0.5%
- viability, T/C [26]: 0.47%
- viability, T/C [27]: 0.5%
- viability, T/C [28]: 0.45%
- viability, T/C (second compound 10 µM, first compound 0.00316 µM): 0.14%
- viability, T/C (second compound 10 µM, first compound 0.01 µM): 0.14%
- viability, T/C [31]: 0.19%
- viability, T/C [32]: 0.13%
- viability, T/C [33]: 0.25%
- viability, T/C [34]: 0.19%
